Measured values taken from PubChem BioAssay (NCI).
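Cultured in 96-well plates, cells were exposed to test compound for 48 hours across five concentrations. GI50 is the concentration that inhibits growth by half. TGI: total growth inhibition.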

How the values were obtained:
Experiment in all cases: NCI tumour cell line growth inhibition, 48 h
[1] = test system: 786-0 renal
[2] = test system: A498 renal
[3] = test system: A549 NSCLC
[4] = test system: ACHN renal
[5] = test system: BT-549 breast
[6] = test system: CAKI-1 renal
[7] = test system: CCRF-CEM leukemia
[8] = test system: COLO 205 colon
[9] = test system: DU-145 prostate
[10] = test system: EKVX NSCLC
[11] = test system: HCC-2998 colon
[12] = test system: HCT-116 colon
[13] = test system: HCT-15 colon
[14] = test system: HL-60(TB) leukemia
[15] = test system: HOP-62 NSCLC
[16] = test system: HOP-92 NSCLC
[17] = test system: HS 578T breast
[18] = test system: HT29 colon
[19] = test system: IGROV1 ovarian
[20] = test system: K-562 leukemia
[21] = test system: KM12 colon
[22] = test system: LOX IMVI melanoma
[23] = test system: M14 melanoma
[24] = test system: MALME-3M melanoma
[25] = test system: MCF7 breast
[26] = test system: MDA-MB-435
[27] = test system: MDA-MB-468 breast
[28] = test system: MOLT-4 leukemia
[29] = test system: NCI-H226 lung
[30] = test system: NCI-H23 lung
[31] = test system: NCI-H460 lung
[32] = test system: NCI-H522 lung
[33] = test system: NCI/ADR-RES ovarian
[34] = test system: OVCAR-3 ovarian
[35] = test system: OVCAR-4 ovarian
[36] = test system: OVCAR-5 ovarian
[37] = test system: OVCAR-8 ovarian
[38] = test system: PC-3 prostate
[39] = test system: RPMI-8226 leukemia
[40] = test system: RXF 393 renal
[41] = test system: SF-268 CNS
[42] = test system: SF-295 CNS
[43] = test system: SF-539 CNS
[44] = test system: SK-MEL-28 melanoma
[45] = test system: SK-MEL-5 melanoma
[46] = test system: SK-OV-3 ovarian
[47] = test system: SN12C renal
[48] = test system: SNB-19 CNS
[49] = test system: SR leukemia
[50] = test system: SW-620 colon
[51] = test system: T-47D breast
[52] = test system: TK-10 renal
[53] = test system: U251 CNS
[54] = test system: UACC-257 melanoma
[55] = test system: UACC-62 melanoma

SMILES: O=C1N/C(=N\c2nccs2)S/C1=C\c1ccc([N+](=O)[O-])cc1
- GI50 [1]: 6.17 µM
- TGI [1]: 72.9 µM
- GI50 [2]: 14.5 µM
- TGI [2]: 39.8 µM
- GI50 [3]: 4.89 µM
- TGI [3]: > 100 µM
- GI50 [4]: 5.49 µM
- TGI [4]: 35.2 µM
- GI50 [5]: 6.87 µM
- TGI [5]: 41.4 µM
- GI50 [6]: 12.7 µM
- TGI [6]: 82.8 µM
- GI50 [7]: 3.84 µM
- TGI [7]: 32.5 µM
- GI50 [8]: 7.7 µM
- TGI [8]: 23.9 µM
- GI50 [9]: 11.9 µM
- TGI [9]: > 100 µM
- GI50 [10]: 4.71 µM
- TGI [10]: 27.8 µM
- GI50 [11]: 6.93 µM
- TGI [11]: 30.4 µM
- GI50 [12]: 4.44 µM
- TGI [12]: 19 µM
- GI50 [13]: 4.29 µM
- TGI [13]: > 100 µM
- GI50 [14]: 3.62 µM
- TGI [14]: 24.5 µM
- GI50 [15]: 6.77 µM
- TGI [15]: 60.7 µM
- GI50 [16]: 4.46 µM
- TGI [16]: 38.3 µM
- GI50 [17]: 11.6 µM
- TGI [17]: 81.6 µM
- GI50 [18]: 18.5 µM
- TGI [18]: > 100 µM
- GI50 [19]: 6.89 µM
- TGI [19]: 30.8 µM
- GI50 [20]: 4.24 µM
- TGI [20]: > 100 µM
- GI50 [21]: 5.91 µM
- TGI [21]: 32.4 µM
- GI50 [22]: 4.75 µM
- TGI [22]: 34.2 µM
- GI50 [23]: 9.86 µM
- TGI [23]: 39.6 µM
- GI50 [24]: 11.2 µM
- TGI [24]: 27.2 µM
- GI50 [25]: 4.44 µM
- TGI [25]: 20.4 µM
- GI50 [26]: 12 µM
- TGI [26]: > 100 µM
- GI50 [27]: 4.62 µM
- TGI [27]: 25.8 µM
- GI50 [28]: 2.54 µM
- TGI [28]: 7.5 µM
- GI50 [29]: 12.5 µM
- TGI [29]: 68.2 µM
- GI50 [30]: 6.8 µM
- TGI [30]: 70 µM
- GI50 [31]: 4.12 µM
- TGI [31]: 19.7 µM
- GI50 [32]: 7.47 µM
- TGI [32]: 33.9 µM
- GI50 [33]: 5.03 µM
- TGI [33]: 37.3 µM
- GI50 [34]: 4.73 µM
- TGI [34]: 29.4 µM
- GI50 [35]: 7.01 µM
- TGI [35]: 67.5 µM
- GI50 [36]: 16.1 µM
- TGI [36]: 95.6 µM
- GI50 [37]: 6.43 µM
- TGI [37]: 68.9 µM
- GI50 [38]: 5.98 µM
- TGI [38]: > 100 µM
- GI50 [39]: 3.56 µM
- TGI [39]: 31.6 µM
- GI50 [40]: 12.4 µM
- TGI [40]: 46.3 µM
- GI50 [41]: 10.1 µM
- TGI [41]: > 100 µM
- GI50 [42]: 5.11 µM
- TGI [42]: 40.5 µM
- GI50 [43]: 5.62 µM
- TGI [43]: 26.9 µM
- GI50 [44]: 14 µM
- TGI [44]: > 100 µM
- GI50 [45]: 7.45 µM
- TGI [45]: 20.2 µM
- GI50 [46]: 15.7 µM
- TGI [46]: 63.9 µM
- GI50 [47]: 5.47 µM
- TGI [47]: 63.5 µM
- GI50 [48]: 3.58 µM
- TGI [48]: 70.6 µM
- GI50 [49]: 3.41 µM
- TGI [49]: 18 µM
- GI50 [50]: 4.77 µM
- TGI [50]: > 100 µM
- GI50 [51]: 5.05 µM
- TGI [51]: 53.1 µM
- GI50 [52]: 12.8 µM
- TGI [52]: 59.3 µM
- GI50 [53]: 4.6 µM
- TGI [53]: > 100 µM
- GI50 [54]: 12.4 µM
- TGI [54]: 32.5 µM
- GI50 [55]: 5.08 µM
- TGI [55]: 23.1 µM
